One molecule from patent US9078917B2, “Extract of Phaleria macrocarpa as an antineoplastic, anti-inflammatory and antiangiogenic agent” (PT. Dexa Medica, priority 2008, dated 2015) can be followed below.

Common to all, as to assay type: cell-based
One assay relates to VEGF-C mRNA expression. Description: VEGF-C RT-PCR in serum-free MDA-MB-231 cells. Particulars: TPA versus control, serum-free medium; FIG. 13. As for the experimental part:
(§1) MDA-MB-231 cells were cultured in supplemented medium, then the cells were incubated at 37° C., CO2 5%. MDA-MB-231 cells were cultured in 6-well plates. A day before treatment administration, medium was changed with serum-free medium for 24 hours. Treatment administration was done by administering various doses of Phaleria macrocarpa extract dissolved in organic solvent. RNA isolation was conducted using Trizol. The RNAs then were used in RT-PCR process using specific primer for each gene we used. RT-PCR reactions were performed in PCR machines with optimized conditions. RT-PCR products were analyzed using electrophoresis technique on agarose gel 2%, and quantified using Chemidoc.

Another assay concerns COX-1 mRNA expression. Description: COX-1 RT-PCR in serum-free MDA-MB-231 cells. Particulars: TPA alone versus control; FIG. 11. As for the experimental part: as §1
Another assay has as its system cPLA2 mRNA expression. Description: cPLA2 RT-PCR in serum-free MDA-MB-231 cells. Particulars: TPA versus control, serum-free medium; FIG. 12. Here is the method:
as §1

Structures are written as SMILES.

`CCCCCCCCCCCCCC(=O)O[C@@H]1[C@@H](C)[C@@]2(O)[C@@H](C=C(CO)C[C@]3(O)C(=O)C(C)=C[C@@H]23)[C@@H]2C(C)(C)[C@]12OC(C)=O` [TPA]: in the assay on VEGF-C mRNA expression, the “VEGF-C gene in mRNA level” value is reported as “significant increase of VEGF-C gene”. Also, the “mRNA expression of COX-1” value with COX-1 mRNA expression is given as “did not show any significant differences compared to control”. In addition, the “cPLA2 mRNA expression” value with cPLA2 mRNA expression was “increase in cPLA2 mRNA expression significantly”.
